Results from ChEMBL document CHEMBL5614443, “Hybrids of 3-Hydroxypyridin-4(1H)-ones and Long-Chain 4-Aminoquinolines as Potent Biofilm Inhibitors of Pseudomonas aeruginosa Potentiate Tobramycin and Polymyxin B Activity” (J Med Chem, 2024).
Calls of active or inactive are those of the source.

How the values were obtained:
Pseudomonas aeruginosa [1] = experiment: Synergistic antibacterial activity against Pseudomonas aeruginosa PAO1 assessed as fold reduction in bacterial survival rate incubated for 24 hrs in presence of ciprofloxacin by LB agar plate method; type: functional
Pseudomonas aeruginosa [2] = experiment: Synergistic antibacterial activity against Pseudomonas aeruginosa clinical isolate 1121 assessed as reduction in bacterial viability at 10 to 50 uM incubated for 24 hrs in presence of 1/2 MIC of tobramycin by LB agar plate method; type: functional, organism-based; conditions: dose 10-50 µM
Pseudomonas aeruginosa [3] = experiment: Synergistic antibacterial activity against Pseudomonas aeruginosa PAO1 assessed as fold reduction in bacterial survival rate incubated for 24 hrs in presence of norfloxacin by LB agar plate method; type: functional
Pseudomonas aeruginosa [4] = experiment: Synergistic antibacterial activity against Pseudomonas aeruginosa clinical isolate 1167 assessed as reduction in bacterial viability at 10 to 50 uM incubated for 24 hrs in presence of 1/2 MIC of polymyxin B by LB agar plate method; type: functional, organism-based; conditions: dose 10-50 µM
Pseudomonas aeruginosa [5] = experiment: Antibacterial activity against Pseudomonas aeruginosa 27853 assessed as inhibition of bacterial growth incubated for 24 hrs by CLSI protocol based method; type: functional, organism-based
Pseudomonas aeruginosa [6] = experiment: Antibacterial activity against Pseudomonas aeruginosa PAO1 assessed as inhibition of bacterial growth at 0.1 to 50 uM measured upto 24 hrs by CLSI protocol based method; type: functional, organism-based; conditions: dose 0.1-50 µM
Pseudomonas aeruginosa [7] = experiment: Synergistic antibacterial activity against Pseudomonas aeruginosa clinical isolate 0815 assessed as reduction in bacterial viability at 10 to 50 uM incubated for 24 hrs in presence of 1/2 MIC of tobramycin by LB agar plate method; type: functional, organism-based; conditions: dose 10-50 µM
Pseudomonas aeruginosa [8] = experiment: Antibacterial activity against Pseudomonas aeruginosa PAO1 infected in Caenorhabditis elegans assessed as worm survival rate at 10 uM measured after 96 hrs in presence of polymyxin B at 1/2 MIC by bright field microscopic analysis relative to control; type: functional
Pseudomonas aeruginosa [9] = experiment: Synergistic antibacterial activity against Pseudomonas aeruginosa clinical isolate 0815 assessed as reduction in bacterial viability at 10 to 50 uM incubated for 24 hrs in presence of 1/4 MIC of polymyxin B by LB agar plate method; type: functional, organism-based; conditions: dose 10-50 µM
Pseudomonas aeruginosa [10] = experiment: Antivirulence activity in Pseudomonas aeruginosa clinical isolate 1121 assessed as reduction in pyocyanin production at 10 uM incubated for 24 hrs by absorbance based analysis; type: functional, organism-based
Pseudomonas aeruginosa [11] = experiment: Antibacterial activity against Pseudomonas aeruginosa clinical isolate 1031 assessed as inhibition of bacterial growth incubated for 24 hrs by CLSI protocol based method; type: functional, organism-based
Pseudomonas aeruginosa [12] = experiment: Antibacterial activity against Pseudomonas aeruginosa PAO1 infected in Caenorhabditis elegans assessed as worm survival rate at 10 uM measured after 72 hrs in presence of tobramycin at 1/2 MIC by bright field microscopic analysis relative to control; type: functional
Pseudomonas aeruginosa [13] = experiment: Synergistic antibacterial activity against Pseudomonas aeruginosa PAO1 assessed as fold reduction in bacterial survival rate incubated for 24 hrs in presence of ceftazidime by LB agar plate method; type: functional
Pseudomonas aeruginosa [14] = experiment: Synergistic antibacterial activity against Pseudomonas aeruginosa PAO1 assessed as reduction in cell viability at 10 to 50 uM incubated for 24 hrs in the presence of 1/2 MIC of polymyxin B by LB agar plate method; type: functional, organism-based; conditions: dose 10-50 µM
Pseudomonas aeruginosa [15] = experiment: Antivirulence activity in Pseudomonas aeruginosa clinical isolate 1167 assessed as reduction in pyocyanin production at 10 uM incubated for 24 hrs by absorbance based analysis; type: functional, organism-based
Pseudomonas aeruginosa [16] = experiment: Induction of Fe3+ chelating activity in Pseudomonas aeruginosa PAO1 assessed as increase in pyochelin production by measuring fold change at 50 uM incubated for 24 hrs by fluorescence microplate reader
Pseudomonas aeruginosa [17] = experiment: Antibacterial activity against Pseudomonas aeruginosa clinical isolate 1167 assessed as inhibition of bacterial growth incubated for 24 hrs by CLSI protocol based method; type: functional, organism-based
Pseudomonas aeruginosa [18] = experiment: Antivirulence activity in Pseudomonas aeruginosa clinical isolate 1167 assessed as reduction in rhamnolipid production at 10 uM incubated for 24 hrs by absorbance based microtiter plate reader analysis; type: functional, organism-based
[19] = Cytotoxicity against African green monkey Vero cells assessed as reduction in cell viability at <=100 uM incubated for 24 hrs by MTT assay; type: toxicity, cell-based; conditions: chlorocebus sabaeus
Pseudomonas aeruginosa [20] = experiment: Antibacterial activity against Pseudomonas aeruginosa clinical isolate 1065 assessed as inhibition of bacterial growth incubated for 24 hrs by CLSI protocol based method; type: functional, organism-based
Pseudomonas aeruginosa [21] = experiment: Synergistic antibacterial activity against Pseudomonas aeruginosa PAO1 assessed as fold reduction in bacterial survival rate incubated for 24 hrs in presence of tetracycline by LB agar plate method; type: functional
[22] = Hemolytic activity in rabbit erythrocytes assessed as hemolysis rate at 200 uM incubated for 2 hrs by microplate reader analysis (reference value: 100 %); type: toxicity, cell-based, Oryctolagus cuniculus, Erythrocyte; conditions: read-out: Activity
Pseudomonas aeruginosa [23] = experiment: Antibacterial activity against Pseudomonas aeruginosa clinical isolate 1074 assessed as inhibition of bacterial growth incubated for 24 hrs by CLSI protocol based method; type: functional, organism-based
Pseudomonas aeruginosa [24] = experiment: Synergistic antibacterial activity against Pseudomonas aeruginosa PAO1 assessed as fold reduction in bacterial survival rate incubated for 24 hrs in presence of erythromycin by LB agar plate method; type: functional
Pseudomonas aeruginosa [25] = experiment: Antibiofilm activity against Pseudomonas aeruginosa PAO1 assessed as inhibition of biofilm formation incubated for 24 hrs by crystal violet staining based analysis; type: functional, organism-based; conditions: PAO1, 24 h
Pseudomonas aeruginosa [26] = experiment: Antivirulence activity in Pseudomonas aeruginosa clinical isolate 0815 assessed as reduction in rhamnolipid production at 10 uM incubated for 24 hrs by absorbance based microtiter plate reader analysis; type: functional, organism-based
Pseudomonas aeruginosa [27] = experiment: Antivirulence activity in Pseudomonas aeruginosa clinical isolate 1121 assessed as reduction in rhamnolipid production at 10 uM incubated for 24 hrs by absorbance based microtiter plate reader analysis; type: functional, organism-based
[28] = Cytotoxicity against African green monkey Vero cells assessed as reduction in cell viability at 200 uM incubated for 24 hrs by MTT assay; type: toxicity, cell-based; conditions: chlorocebus sabaeus
Pseudomonas aeruginosa [29] = experiment: Synergistic antibacterial activity against Pseudomonas aeruginosa clinical isolate 0815 assessed as reduction in bacterial viability at 10 to 50 uM incubated for 24 hrs in presence of 1/4 MIC of tobramycin by LB agar plate method; type: functional, organism-based; conditions: dose 10-50 µM
[30] = Inhibition of quorum sensing system in Pseudomonas aeruginosa PAO1 transfected with mini-ctx-lasB-lacZ reporter gene assessed as decrease in beta-galactosidase activity incubated for 6 hrs by Miller assay; conditions: dose 1.25-20 µM
Pseudomonas aeruginosa [31] = experiment: Synergistic antibacterial activity against Pseudomonas aeruginosa clinical isolate 1121 assessed as reduction in bacterial viability at 10 to 50 uM incubated for 24 hrs in presence of 1/2 MIC of polymyxin B by LB agar plate method; type: functional, organism-based; conditions: dose 10-50 µM
Pseudomonas aeruginosa [32] = experiment: Synergistic antibacterial activity against Pseudomonas aeruginosa PAO1 assessed as fold reduction in bacterial survival rate at 50 uM incubated for 24 hrs in presence of 1/2 MIC of tobramycin by LB agar plate method relative to tobramycin alone; type: functional
Pseudomonas aeruginosa [33] = experiment: Inhibition of motility in Pseudomonas aeruginosa PAO1 assessed as reduction in swimming movements incubated for 16 hrs by motility assay; type: functional, organism-based; conditions: dose 1.25-50 µM
Pseudomonas aeruginosa [34] = experiment: Antibiofilm activity against Pseudomonas aeruginosa PAO1 assessed as decrease in biofilm formation incubated for 24 hrs by LIVE/DEAD BacLight staining based 3D confocal laser scanning microscopy; type: functional, organism-based; conditions: dose 1-10 µM
Pseudomonas aeruginosa [35] = experiment: Synergistic antibacterial activity against Pseudomonas aeruginosa clinical isolate 1167 assessed as reduction in bacterial viability at 10 to 50 uM incubated for 24 hrs in presence of 1/8 MIC of tobramycin by LB agar plate method; type: functional, organism-based; conditions: dose 10-50 µM

Cc1cc(=O)c(O)c(C(=O)NCCCCCCCCNc2ccnc3cc(Cl)ccc23)n1C.Cl
inactive: Activity (Pseudomonas aeruginosa [5]) | Activity (Pseudomonas aeruginosa [6]) | Activity (Pseudomonas aeruginosa [11]) | Activity (Pseudomonas aeruginosa [17]) | Activity (Pseudomonas aeruginosa [20]) | Activity (Pseudomonas aeruginosa [23])
~60: fold change (FC) (Pseudomonas aeruginosa [32])
28.4%: survival at 10 µM (Pseudomonas aeruginosa [12])
32.1%: survival at 10 µM (Pseudomonas aeruginosa [8])
<10: fold change (FC) (Pseudomonas aeruginosa [1]) | fold change (FC) (Pseudomonas aeruginosa [3]) | fold change (FC) (Pseudomonas aeruginosa [13]) | fold change (FC) (Pseudomonas aeruginosa [21]) | fold change (FC) (Pseudomonas aeruginosa [24])
2: fold change (FC) (Pseudomonas aeruginosa [16])
active: Activity (Pseudomonas aeruginosa [2]) | Activity (Pseudomonas aeruginosa [4]) | Activity (Pseudomonas aeruginosa [7]) | Activity (Pseudomonas aeruginosa [9]) | Activity (Pseudomonas aeruginosa [10]) | Activity (Pseudomonas aeruginosa [14]) | Activity (Pseudomonas aeruginosa [15]) | Activity (Pseudomonas aeruginosa [18]) | Activity (Pseudomonas aeruginosa [26]) | Activity (Pseudomonas aeruginosa [27]) | Activity (Pseudomonas aeruginosa [29]) | inhibition [30] Dose-Dependent Effect | Activity (Pseudomonas aeruginosa [31]) | inhibition (Pseudomonas aeruginosa [33]) Dose-Dependent Effect | Activity (Pseudomonas aeruginosa [34]) Dose-Dependent Effect | Activity (Pseudomonas aeruginosa [35])
< 1.5%: hemolysis at 2 h, 200 µM [22]
Non-Toxic: Activity [19]
5.8 µM: IC50 (Pseudomonas aeruginosa [25])
Toxic: Activity [28]
